Results from US8093284B2, “Process for producing aqueous solution of doripenem” (Shionogi & Co., Ltd., priority 2005, dated 2012).

What was measured:
Format in all cases: physicochemical
[1] = Decomposition of doripenem on heating and dissolving an aqueous suspension with a continuous heating and dissolving equipment; conditions: continuous heating; position of 28 m of the equipment; heating source around 60° C., about 6 L/min, solution around 55° C. at outlet; 15.5 kg in 280 L water
Description: An aqueous suspension of doripenem (aqueous suspension in which 15.5 kg of doripenem had been mixed with 280 L of water) was cooled to 10° C. or lower to suppress decomposition during waiting. This aqueous suspension was passed through a continuous heating and dissolving equipment of an inner diameter of around 23 mm and a length of around 28 m, having a heating source at around 60° C. at about 6 L/min, and elevation in a temperature and dissolution were performed during passage through the machine to obtain an aqueous solution of doripenem at around 55° C. at an outlet of the dissolving machine. A decomposition degree of doripenem at a position of 28 m of the continuous heating and dissolving equipment was about 0.2%.

[2] = Decomposition of doripenem in an aqueous solution at 40, 50 or 60° C.; conditions: aqueous solution at 40° C., 50° C., or 60° C.
Description: Decomposition of doripenem in an aqueous solution of doripenem at 40° C., 50° C., or 60° C. was examined. […] FIG. 2, FIG. 3 and FIG. 4 show a doripenem decomposition curve at each temperature.

[3] = Decomposition of doripenem on heating and dissolving an aqueous suspension in a batch manner; conditions: heating medium around 60° C., solution around 55° C., measured immediately after dissolution, 15.5 kg in 280 L water
Description: An aqueous suspension of doripenem (aqueous suspension in which 15.5 kg of doripenem had been mixed with 280 L of water) was cooled to 10° C. or lower to suppress decomposition during waiting. This aqueous suspension was dissolved as it was using a heating medium at around 60° C. to obtain an aqueous solution of doripenem, at around 55° C. A decomposition degree of doripenem measured immediately after dissolution of doripenem was about 7%.

decomposition degree of doripenem [1]: about 0.2%
decomposition degree of doripenem [3]: about 7%
SMILES: C[C@@H](O)[C@H]1C(=O)N2C(C(=O)O)=C(S[C@@H]3CN[C@H](CNS(N)(=O)=O)C3)[C@H](C)[C@H]12 [doripenem]
decomposition of doripenem in aqueous solution [2]: decomposed at these temperatures with time
